# Measured values published in patent US11542240B2, “STK19 inhibitors for treatment of cancer” (TRUSTEES OF BOSTON UNIVERSITY, priority 2018, dated 2023).
# Columns and labels:
# [1] = biological target: STK19 (Homo sapiens (Human), UniProt P49842); test: STK19 kinase inhibitory activity, ADP-Glo kinase assay with NRAS substrate; type: biochemical
# [2] = system: SK-MEL-2 cells; type: cell-based, human; conditions: SK-MEL-2, G9a inhibition by A-366
# Text: (§1) In addition, the inventors investigated the growth inhibitory effects of IV in melanoma cells with different NRAS and BRAF status, including A375 and UACC62 (NRASWT, BRAFV600E), and SK-MEL-2 and WM2032 (NRASQ61R, BRAFWT).
# (§2) To further confirm the pharmacological effects of IV derive from STK19 inhibition and not G9a inhibition, the inventors investigated the role of G9a in NRAS signaling activation. G9a was silenced by G9a-specific shRNA or inhibited by a specific inhibitor, A-366, in SK-MEL-2 and WM2032 melanoma cells. […] In summary, ZT-12-037-01 (IV) is a specific STK19-targeted inhibitor to block oncogenic NRAS-driven melanocyte malignant transformation and melanoma growth.
# [3] = system: WM2032 cells; type: cell-based, human; conditions: WM2032, G9a inhibition by A-366
# Text: as §1, §2
# STK19, sequence (P49842 other isoform, or with tags, fused parts or gaps): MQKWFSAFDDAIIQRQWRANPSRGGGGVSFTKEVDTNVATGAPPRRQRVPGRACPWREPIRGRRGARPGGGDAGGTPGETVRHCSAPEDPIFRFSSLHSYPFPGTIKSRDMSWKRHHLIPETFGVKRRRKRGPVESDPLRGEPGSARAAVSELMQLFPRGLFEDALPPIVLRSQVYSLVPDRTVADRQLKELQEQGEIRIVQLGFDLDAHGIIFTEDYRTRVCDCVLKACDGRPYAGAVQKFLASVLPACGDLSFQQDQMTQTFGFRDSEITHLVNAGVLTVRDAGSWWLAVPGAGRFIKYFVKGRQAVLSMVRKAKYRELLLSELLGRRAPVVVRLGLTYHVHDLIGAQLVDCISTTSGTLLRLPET
inhibition at 10 µM [1] [%],inhibitory potential toward STK19 ([1]; in vitro kinase assay),SMILES,H3K9 methylation levels [2],H3K9 methylation levels [3]
59,,COc1cc2nc(N3CCOCC3)nc(NC3CCN(C(C)C)CC3)c2cc1OC [Formula XXI],,
,little inhibitory potential,"COc1cc2c(cc1OCCCN1CCCC1)N=C(N)C21CCC1 [Formula A-366, reference compound]",markedly repressed,markedly repressed
